These results are taken from the NIST ThermoML archive (doi:10.1016/j.jct.2016.05.027).

Numbers after ± are expanded uncertainties.

Data set [1] can be described thus: Molar enthalpy of transition or fusion. The settings on record: Crystal; DSC.
For data set [2] the following is noted: Crystal.

In the case of `Cc1cccc([N+](=O)[O-])c1N` [2-methyl-6-nitroaniline], the “Molar enthalpy of transition or fusion” value in data set [1] came to 5.77 ± 0.225 kcal/mol. The mass density (usually the mass of a sample divided by its volume) in data set [2] (298.15 K, 101.33 kPa, flotation method) was 1242.4 ± 2.6 kg/m3. For the same molecule, in data set [2] (DTA), the Normal melting temperature was found to be 93.60 ± 1.1 °C.
